Assay [1] concerns healthy rabbit. Kind of assay: Production of mucus in the healthy rabbit (method of R. Scuri et al.). The following applies: Oryctolagus cuniculus, administration route: oral. The format is in vivo. The source says: (§1) The following table indicates e.g. the bronchial secretion stimulating and mucolytic activity of the compound 10 (R⁴=H, R⁵=OH) as compared to sobrerol.
Assay [2] has as its system rat. Kind of assay: Expectorating activity in the rat (method of K. Kogi et al.). The format is in vivo. The following applies: os, read-out: Expectorating activity in the rat, ED₅₀ os.
Excerpt: as §1

Where [3] appears, read: read-out: Production of mucus in the healthy rabbit: No.of animals/increase, ED₅₀.
[4] abbreviates: read-out: Production of mucus in the healthy rabbit: Production of mucus, ED₅₀.

Like-named read-outs stand apart in the source and are kept apart here.

Drawing on EP0343367A1, “Mercapto-compounds having mucolytic action and a process for their preparation” (CAMILLO CORVI S.p.A., priority 1988, dated 1989), this text covers ED50 for 2 molecules.

Take `CC(C)(O)C1CC=C(CS)C(O)C1` (stereo not drawn) [Compound 10, 2-hydroxy-4-(1-hydroxy-1-methylethyl)-6-cyclohexene-1-methanethiol]: the ED50 was found to be 400 mg/kg in assay [1] (setting [3]), 400 mg/kg in assay [1] (setting [4]) and 100 mg/kg in assay [2].

`CC1=CCC(C(C)(C)O)CC1O` (stereo not drawn) [Sobrerol]: the ED50 is 500 mg/kg in assay [1] (setting [3]), 500 mg/kg in assay [1] (setting [4]) and 40 mg/kg in assay [2].
